# Data taken from ChEMBL document CHEMBL5321210, “N-adamantyl-anthranil amide derivatives: New selective ligands for the cannabinoid receptor subtype 2 (CB2R)” (Eur J Med Chem, 2023).
# Calls of active or inactive are those of the source. The calls are words filed in the database; no cut-off is given here.
# Tests used:
# THP-1 [1] = test: Antiinflammatory activity in PMA-differentiated human THP-1 macrophages assessed as increase in IL-10 production at 1 to 10 uM incubated for 24 hrs by ELISA coupled qRT-PCR analysis; assay type: functional, cell-based; conditions: dose 1-10 µM
# THP-1 [2] = test: Antiinflammatory activity against LPS-activated PMA-differentiated human THP-1 monocytes assessed as decrease in IL-1beta production at 10 uM incubated for 24 hrs in the presence of N-(adamantan-1-yl)-4-(pentylamino)-[1,1'-biphenyl]-3-carboxamide by ELISA coupled qRT-PCR analysis; assay type: functional, cell-based
# THP-1 [3] = test: Antiinflammatory activity against LPS-activated PMA-differentiated human THP-1 macrophages assessed as increase in IL-4 production at 10 uM incubated for 24 hrs by ELISA coupled qRT-PCR analysis; assay type: functional, cell-based
# THP-1 [4] = test: Antiinflammatory activity against LPS-activated PMA-differentiated human THP-1 macrophages assessed as decrease in IFN-gamma production at 10 uM incubated for 24 hrs by ELISA coupled qRT-PCR analysis relative to control; assay type: functional; design: scale not given: the % may be the effect or the level left
SMILES,Activity (THP-1 [1]),Activity (THP-1 [2]),Activity (THP-1 [3]),Activity (THP-1 [4])
CCCCCNc1ccccc1C(=O)NC12CC3CC(CC(C3)C1)C2,Active,–,–,–
O=C(NC1CCCCC1)c1cn(CCN2CCOCC2)c2cc(Cl)ccc2c1=O,–,inactive,Active,70%
